The values that follow come from US20240108753A1, “NUCLEIC ACID DELIVERY” (NUNTIUS THERAPEUTICS LIMITED, priority 2021, published 2024).

“Also recorded” adds a separate entry of the source.

One data set concerns HeLa cells. Briefly: mRNA (eGFP) transfection with peptide dendrimers and DOTMA/DOPE in full growth medium. Format: cell-based, human. The note with it: HeLa; full growth medium; DOTMA/DOPE w/w 10:1 to mRNA; relative to G1,2-RL, 3-LR. As to the method: FIG. 28. mRNA transfection of the peptide dendrimers with lipid system in vitro. […] The mRNA used expressed an eGFP reporter gene. Following a 24 hour transfection, the cells were harvested to assay the eGFP expression. The eGFP expression was normalised with the total amount of protein of each transfection. The gene expression level was calculated by normalising the transfection value of the G1,2-RL, 3-LR, DOTMA/DOPE & mRNA treated cells. 1st, 2nd and 3rd generation dendrimers with varying cores and 1st, 2nd, and 3rd generation peptide motifs can transfect cells with mRNA effectively under the tested conditions.
FIG. 29. mRNA transfection of the peptide dendrimers with lipid system in vitro. HeLa cells were transfected with mRNA alone or mRNA with peptide dendrimers and DOTMA/DOPE (w/w=10:1 to mRNA). The N:P ratio of G1,2-RL,3-LR was at 0.16:1 while the N:P ratios of all other dendrimers at 8:1. The mRNA used expressed an eGFP reporter gene. Following a 24 hour transfection, the cells were harvested to assay the eGFP expression. The eGFP expression was normalised with the total amount of protein of each transfection. The gene expression level was calculated by normalising the transfection value of the G1,2-RL, 3-LR, DOTMA/DOPE & mRNA treated cells. 1st, 2nd and 3rd generation dendrimers with varying cores and 1st, 2nd, and 3rd generation peptide motifs can transfect cells with mRNA effectively under the tested conditions.
The effect on the number of generations of dendrimers on mRNA delivery was studied by transfecting HeLa cells in full growth medium conditions.

Data set [1] in a line: Hydrodynamic size, polydispersity index and zeta potential of dendrimer, lipid and mRNA complexes. Format: physicochemical. The following applies: DOTMA/DOPE w/w 10:1 to mRNA; for Hydrodynamic size: dendrimer, lipid and mRNA complexes. As to the method: The hydrodynamic size, polydispersity index and Zeta potential was determined for a set of the dendrimers disclosed in Tables 1 and 2.

Another data set has as its system mice tissue. Briefly: In vivo luciferase mRNA expression assays. The note with it: for luciferase expression in tissues, mRNA delivery: intravenous, DOTMA/DOPE w/w=10:1 to mRNA, 6 hours. As to the method:
Peptide dendrimers were diluted to a respective concentration and mixed with mRNA for a desired NP ratio such as NP=0.15:1 or 8:1. The solution was incubated in room temperature for 10 mins. Lipid such as DOTMA/DOPE was diluted to a respective concentration and mixed with the dendrimer-mRNA complexes for a desired NP ratio such as NP-4.7:1. The solution was incubated in room temperature for 20 mins. When required, the solution would be further diluted before injection.
All animal procedures conducted in our studies complied with UK laws and were inclusive of ethics approval. Female CD-1 mice (n=39) aged 6-8 weeks left to habituate for 1-week upon their arrival. All mice were weighed, and the formulations were delivered intravenously (100 μl) via the tail vein using 30G insulin syringes (BD biosciences).
All mice were imaged 6 hours post injection. BLI was performed using an IVIS Lumina II (Perkin Elmer) Imaging system. Mice were administered D-luciferin (30 mg/mL, XenoLight, Perkin Elmer) at a dose of 150 mg/kg. Mice were anaesthetised 6 mins after receiving D-luciferin in a chamber with 5% isoflurane and then placed on a heated imaging platform while being maintained on 2.5% isoflurane. Mice were imaged 10 min post administration of D-luciferin with an exposure time set to ensure the signal acquired was within an effective detection range (open filter, binning 8, f-stop 1). Bioluminescence signal was quantified by measuring photon flux (photons/s) in the defined region of interest (ROI) using the Living Image software (Perkin Elmer). Following in vivo whole-body imaging, the mice were euthanised, cardiac blood taken, and the tissues extracted for ex vivo imaging. Here each tissue was placed into individual wells of a 24-well imaging plate (black sided, Eppendorf) containing 0.3 mg/mL D-luciferin in PBS). The imaging plate was placed in the centre of imaging platform (Lumina II system) and signal was measured using the acquisition settings detailed above. Finally, the tissues were placed in storage vials and flash frozen in liquid nitrogen.
Mice were injected with a composition comprising DOTMA/DOPE, mRNA encoding luciferase and either G1,2,3-RL, (FIG. 10, top panel; the “G1,2,3-RL, lipid and mRNA formulation”) or G1,2-RL,3-LR (FIG. 10, bottom panel: the “G1,2,3-RL, lipid and mRNA formulation”). Each formulation was prepared and injected at an NP ratio of 8:1 and 0.15:1. Mice were prepared for detection of luciferase expression post injection.

The test system of the next data set is C2C12 cells. Briefly: In vitro DNA (luciferase reporter) delivery. The note with it: N:P=8:1, DOTMA/DOPE w/w=1:1 to DNA. Format: cell-based. The source says: FIG. 25. In vitro DNA delivery to HeLa and C2C12 cells. HeLa cells were transfected with either DNA alone, G1,2,3-RL (N:P=5:1) and DOTMA/DOPE (at a w/w=1:1 to DNA) with DNA and G1,2,3-RL (N:P=5:1) and DOPG/DOPE (at a w/w=1:1 to DNA) with DNA (top panel). C2C12 cells (a muscle-derived cell line) were transfected with either DNA alone, polyethylenimine with DNA, G1,2-RL, 3-LR (N:P=8:1) and DOTMA/DOPE (at a w/w=1:1 to DNA) with DNA and NTX2 (N:P=8:1) and DOTMA/DOPE (at a w/w=1:1 to DNA) with DNA (bottom panel). The DNA used in both experiments encodes a luciferase reporter gene. NTX2 is a G1,2-RL, 3-LR dendrimer conjugated to a muscle targeting peptide ASSLINA ((LR)8(KRL)4(KRL)2KGSCGAASSLNIA(Acp)-NH2).
NTX2 is a G1,2-RL, 3-LR dendrimer conjugated to a muscle targeting peptide ASSLINA ((LR)8(KRL)4(KRL)2KGSCGAASSLNIA(Acp)-NH2).

For “(LR)8(KRL)4(KRL)2KGSC-NH2 [G1,2-RL, 3-LR]”, the “mRNA transfection efficiency (eGFP), in words” value in the data set on HeLa cells is “the most effective in mRNA transfection”. Also, the “Polydispersity Index (PDI)” value in data set [1] (N:P 0.16:1) was found to be 0.122; in data set [1] (N:P 8:1) it was 0.261. The figures for the “Zeta Potential” value in data set [1] (N:P 0.16:1) and in data set [1] (N:P 8:1) were 16 mV and 56 mV, respectively. For the same substance, the Hydrodynamic size in data set [1] (N:P 0.16:1) was determined as 127 nm; in data set [1] (N:P 8:1) it was 84 nm. Also, in the data set on mice tissue (DOTMA/DOPE/PEG2000 compared to DOTMA/DOPE), the “luciferase expression with PEG2000 lipid” value is reported as “attenuated luciferase expression”. The “luciferase expression in tissues, mRNA delivery” value is “significant expression in the Gastrocnemius and Quadricep muscle tissues, liver, heart, kidney and adipose tissue” in the data set on mice tissue (NP 0.15:1); “targets a wide range of immune cell tissues including lung, spleen, and lymph nodes; also recorded: improves efficiency of mRNA delivery to lung, spleen, and lymph nodes” with mice tissue (NP 0.15:1, listed as G1,2-RL,3-LR); “significant expression in the Gastrocnemius and Quadricep muscle tissues, liver, heart, kidney and adipose tissue; also recorded: significantly enhanced” in the data set on mice tissue (NP 8:1). In addition, the “luciferase expression after DNA transfection” value in the data set with C2C12 cells is listed as “capable of successfully transfecting C2C12 cells”.
